Several values for one entry are separate records, joined by “and”; a condition that tells them apart may be missing. Identical values can stand only once.
What was measured:
[1] = target: T1, ZF-EGFP fusion protein with the HEIP, AEVK, WEIS, or WT ZF degron (Homo sapiens, UniProt Q9UKT9, N149E/Q147A/Q150V/S154K); assay: Western blot for ZF-EGFP fusion protein; assay type: cell-based; conditions: transduced Jurkat, 18 h
T1 construct: The degron spans residues 130–189 of IKZF3; expressed in transfected cells; host or cells: Jurkat, lentivirally transduced, presorted mCherry+

[2] = target: T2, ZF-EGFP fusion protein with the HEIP, AEVK, WEIS, or WT ZF degron (Homo sapiens, UniProt Q9UKT9, N149E/Q147H/Q150I/S154P); assay: Western blot for ZF-EGFP fusion protein; assay type: cell-based; conditions: transduced Jurkat, 18 h
T2 construct: The degron spans residues 130–189 of IKZF3; expressed in transfected cells; host or cells: Jurkat, lentivirally transduced, presorted mCherry+

[3] = target: T3, endogenous IKZF3 in Jurkat cells (Homo sapiens, UniProt Q96SW2+Q9UKT9); assay: Western blot for endogenous IKZF3; assay type: cell-based; conditions: 18 h; for endogenous IKZF3 levels (Western blot): transduced Jurkat cells; for degradation of endogenous IKZF3 (Western blot): untransduced Jurkat cells
T3 construct: endogenous in cells; host or cells: Jurkat (transduced with ZF-EGFP constructs, or untransduced)

[4] = target: T4, endogenous IKZF1 in Jurkat cells (Homo sapiens, UniProt Q13422+Q96SW2); assay: Endogenous IKZF1 immunostaining, fluorescent antibody flow cytometry assay; assay type: cell-based; conditions: 18 h
T4 construct: endogenous in cells; host or cells: Jurkat (untransduced for immunostaining; WEIS-EGFP-transduced for the blot)
Description: As we sought to screen a large number of mutant ZF degrons with different mutation combinations, we pursued a library screen approach similar to that previously employed by Sievers et al. and Jan et al. , Only the most promising compounds from the original set of 36 were used for the library screen. To help narrow the candidates, a subset of compounds was tested for endogenous IKZF1 degradation in Jurkat cells using a fluorescent antibody flow cytometry assay (Figure S5). […] Thalidomide and lenalidomide were also included as controls.
Endogenous IKZF1 Immunostaining
37 °C and 5% CO2. Following incubation, cells were stained with LIVE/DEAD™ Fixable Aqua Dead Cell Stain (Thermo) diluted 1000X in PBS for 30 min at room temperature and then incubated with Human TruStain FcX block (Biolegend) diluted 40X in PBS + 1% FBS (Gibco) for 10 min at room temperature. Intranuclear staining of IKZF1 was carried out using the Transcription Factor Buffer Set (BD Bioscience) according to the manufacturer's protocol and staining with IKZF1 AF488 antibody (clone R32-1149, BD Bioscience) diluted 40X for 30 minutes at room temperature. Cells were acquired on a Cytoflex S (Beckman Coulter) and data analysed using FlowJo 10.8.1 9 (BD).

[5] = target: AEVK mutant ZF degron fused to EGFP (Homo sapiens, UniProt Q96SW2+Q9UKT9, N149E/Q147A/Q150V/S154K); assay: Ratiometric EGFP:mCherry flow cytometry degradation assay, 18 h
[6] = target: T5, Q147A mutant degron (ANQS) fused to EGFP (Homo sapiens, UniProt Q96SW2+Q9UKT9, Q147A); assay: as above; assay type: cell-based; conditions: for Dmax: Fig 2B, read-out: DMax Q147A/%
T5 construct: pLVX-Sprout-IKZF3 130-189aa Q147A (ANQS); expressed in transfected cells

[7] = target: T6, WT IKZF3-derived degron fused to EGFP (Homo sapiens, UniProt Q96SW2+Q9UKT9); assay: as above; assay type: cell-based; conditions: Jurkat; for Degradation pDC50 WT: Fig 2B; for DC50 / pDC50: WT degron, Fig 5A
T6 construct: Plasmid: pLVX-Sprout-IKZF3 130-189aa (WT); expressed in transfected cells

[8] = test system: library of 8380 IKZF3 degrons fused to EGFP in Jurkat cells; assay: Pooled mutant ZF degron library screen (FACS EGFPlow vs EGFP+, NGS), 18 h; assay type: cell-based, human;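 on logFC: Log2 fold change of EGFPlow over EGFP+ representation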
[9] = target: APIS mutant ZF degron fused to EGFP (Homo sapiens, UniProt Q96SW2+Q9UKT9, N149P/Q147A/Q150I); assay: Ratiometric EGFP:mCherry flow cytometry degradation assay, 18 h
[10] = target: T7, ZF-EGFP fusion protein with the HEIP, AEVK, WEIS, or WT ZF degron (Homo sapiens, UniProt Q9UKT9, N149E/Q147W/Q150I); assay: Western blot for ZF-EGFP fusion protein; assay type: cell-based; conditions: transduced Jurkat, 18 h
T7 construct: The degron spans residues 130–189 of IKZF3; expressed in transfected cells; host or cells: Jurkat, lentivirally transduced, presorted mCherry+

Jurkat cells = assay: TMTpro quantitative proteomics, 16 h; conditions: Jurkat, 10 μM, 16 h; 9644 quantified proteins
[11] = WT degron, residues 146/147/149/150/152/153/154/155/167: FQNQGASFL
[12] = degron residues 146/147/149/150/152/153/154/155/167: FADIGAAFL
[13] = degron residues 146/147/149/150/152/153/154/155/167: FADIGACFL
[14] = degron residues 146/147/149/150/152/153/154/155/167: FADIGADFL
[15] = degron residues 146/147/149/150/152/153/154/155/167: FADIGAEFL
[16] = degron residues 146/147/149/150/152/153/154/155/167: FWEIGACFL
[17] = degron residues 146/147/149/150/152/153/154/155/167: FWEIGAKFL (WEIK)

T3 sequence (Q9UKT9 whole entry): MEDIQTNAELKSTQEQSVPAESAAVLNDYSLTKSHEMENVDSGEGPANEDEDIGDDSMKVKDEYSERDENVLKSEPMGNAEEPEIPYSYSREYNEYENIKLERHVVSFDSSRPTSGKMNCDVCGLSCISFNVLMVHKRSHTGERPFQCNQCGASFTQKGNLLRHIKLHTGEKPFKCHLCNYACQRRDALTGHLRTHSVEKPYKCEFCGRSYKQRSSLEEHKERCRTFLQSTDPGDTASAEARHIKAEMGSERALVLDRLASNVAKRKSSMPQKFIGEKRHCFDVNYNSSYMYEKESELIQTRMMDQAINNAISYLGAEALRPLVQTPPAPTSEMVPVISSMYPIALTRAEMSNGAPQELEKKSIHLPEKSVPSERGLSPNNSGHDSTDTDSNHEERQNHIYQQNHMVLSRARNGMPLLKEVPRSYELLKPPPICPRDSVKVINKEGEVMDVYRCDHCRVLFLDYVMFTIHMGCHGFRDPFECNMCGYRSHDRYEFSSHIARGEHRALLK
T3 sequence (Q96SW2 whole entry): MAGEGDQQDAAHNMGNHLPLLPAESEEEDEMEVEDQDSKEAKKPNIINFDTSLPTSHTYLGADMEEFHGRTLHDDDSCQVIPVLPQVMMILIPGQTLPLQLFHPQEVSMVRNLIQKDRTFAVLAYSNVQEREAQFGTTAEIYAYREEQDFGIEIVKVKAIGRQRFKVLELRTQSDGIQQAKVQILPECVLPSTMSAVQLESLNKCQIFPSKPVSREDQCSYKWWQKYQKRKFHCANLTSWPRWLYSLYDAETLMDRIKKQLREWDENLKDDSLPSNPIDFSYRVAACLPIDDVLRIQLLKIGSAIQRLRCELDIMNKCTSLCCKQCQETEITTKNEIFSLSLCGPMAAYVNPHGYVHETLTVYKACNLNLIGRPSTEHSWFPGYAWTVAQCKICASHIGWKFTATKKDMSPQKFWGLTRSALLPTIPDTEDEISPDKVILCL
T3 sequence (Q16531 whole entry partner): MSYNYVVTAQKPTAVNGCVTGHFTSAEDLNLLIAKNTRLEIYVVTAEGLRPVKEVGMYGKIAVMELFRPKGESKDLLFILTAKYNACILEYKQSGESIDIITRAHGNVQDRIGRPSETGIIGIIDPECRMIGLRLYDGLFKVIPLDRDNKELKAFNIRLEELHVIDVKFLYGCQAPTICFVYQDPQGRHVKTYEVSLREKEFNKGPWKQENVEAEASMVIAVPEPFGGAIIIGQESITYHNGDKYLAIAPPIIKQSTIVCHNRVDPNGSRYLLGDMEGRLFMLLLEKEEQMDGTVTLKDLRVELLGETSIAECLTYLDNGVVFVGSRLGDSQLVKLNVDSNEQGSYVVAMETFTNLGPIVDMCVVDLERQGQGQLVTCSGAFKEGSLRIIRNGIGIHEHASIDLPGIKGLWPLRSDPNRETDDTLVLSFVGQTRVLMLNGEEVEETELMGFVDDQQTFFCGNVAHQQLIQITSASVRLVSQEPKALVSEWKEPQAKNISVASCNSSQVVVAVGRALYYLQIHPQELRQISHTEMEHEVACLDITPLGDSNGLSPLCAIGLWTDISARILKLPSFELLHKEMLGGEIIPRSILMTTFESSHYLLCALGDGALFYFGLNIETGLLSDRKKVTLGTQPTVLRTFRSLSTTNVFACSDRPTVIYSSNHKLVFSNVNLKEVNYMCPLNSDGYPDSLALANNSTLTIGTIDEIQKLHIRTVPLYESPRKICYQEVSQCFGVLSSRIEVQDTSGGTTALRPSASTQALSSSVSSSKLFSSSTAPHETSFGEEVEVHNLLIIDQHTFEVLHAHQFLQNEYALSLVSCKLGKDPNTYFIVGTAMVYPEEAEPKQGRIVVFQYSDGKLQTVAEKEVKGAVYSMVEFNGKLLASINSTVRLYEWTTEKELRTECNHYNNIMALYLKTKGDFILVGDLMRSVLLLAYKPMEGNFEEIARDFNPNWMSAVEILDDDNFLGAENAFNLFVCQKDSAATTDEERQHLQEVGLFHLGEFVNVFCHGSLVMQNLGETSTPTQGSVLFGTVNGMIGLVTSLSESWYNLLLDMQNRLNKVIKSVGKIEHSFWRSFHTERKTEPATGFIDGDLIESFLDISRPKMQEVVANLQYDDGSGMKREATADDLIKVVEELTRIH
APIS mutant ZF degron fused to EGFP, sequence (Q9UKT9 130-189 Q147A/N149P/Q150I): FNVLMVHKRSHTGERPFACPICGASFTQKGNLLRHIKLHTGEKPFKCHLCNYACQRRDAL
APIS mutant ZF degron fused to EGFP, sequence (Q96SW2 whole entry, the tested form may be a part): as the sequence (Q96SW2 whole entry) above
APIS mutant ZF degron fused to EGFP, sequence (Q16531 whole entry partner, the tested form may be a part): as the sequence (Q16531 whole entry partner) above

CC(C)(C)c1ccc2c(c1)C(=O)N(C1CCC(=O)NC1=O)C2=O (stereo not shown) [Compound 19]
degradation of EGFP tagged with AEVK degron (Western blot) [1]: complete degradation | degradation of EGFP tagged with HEIP degron (Western blot) [2]: complete degradation | endogenous IKZF3 levels (Western blot) [3]: remained unaffected | degradation of endogenous IKZF3 (Western blot) [3]: do not induce degradation of endogenous IKZF3 | degradation of endogenous IKZF1 [4]: did not induce degradation of endogenous IKZF1 | DC50 ([5]; AEVK, Jurkat, 18 h): 27.5 nM | pDC50 ([5]; AEVK, Jurkat, 18 h): 7.56 | Selectivity (WT/mutant) ([5]; DC50(WT)/DC50(AEVK)): 28 | DC50 ([6]; ANQS, Jurkat, 18 h, Fig 5A): 537 nM | pDC50 ([6]; ANQS, Jurkat, 18 h, Fig 5A): 6.27 | Selectivity (WT/mutant) ([6]; DC50(WT)/DC50(ANQS), Fig 5A): 1.4 | Dmax ([6]; Jurkat, 18 h): 87% | Degradation pDC50 WT [7]: 6.05 | DC50 [7]: 759 nM | pDC50 [7]: 6.12 | Log2FC [8, 11]: -1.8291 and -1.83 | logFC [8, 12]: 3.42 | logFC [8, 13]: 2.8476 | logFC [8, 14]: 0.3339 | logFC [8, 15]: 0.9661 | Log2FC ([8]; degron residues 146/147/149/150/152/153/154/155/167: FAEIGAAFL): 3.8965 | Log2FC ([8]; degron residues 146/147/149/150/152/153/154/155/167: FAEIGARFL): 3.8372 | Log2FC ([8]; degron residues 146/147/149/150/152/153/154/155/167: FAEVGAKFL (AEVK)): 3.9176 and 3.92 and 3.918 | Log2FC ([8]; degron residues 146/147/149/150/152/153/154/155/167: FAEVGARFL): 3.9084 | Log2FC ([8]; degron residues 146/147/149/150/152/153/154/155/167: FAEVGASFL): 3.8698 | Log2FC ([8]; degron residues 146/147/149/150/152/153/154/155/167: FANQGASFL (ANQS)): -0.98 | Log2FC ([8]; degron residues 146/147/149/150/152/153/154/155/167: FAPIGASFL (APIS)): 3.73 | Log2FC ([8]; degron residues 146/147/149/150/152/153/154/155/167: FFDIGAPFL (FDIP)): 3.9195 and 3.92 and 3.919 | Log2FC ([8]; degron residues 146/147/149/150/152/153/154/155/167: FFEVGAPFL (FEVP)): 3.9979 and 4.00 and 3.998 | Log2FC ([8]; degron residues 146/147/149/150/152/153/154/155/167: FFPIGAPFL): 3.9164 | Log2FC ([8]; degron residues 146/147/149/150/152/153/154/155/167: FGEVGARFL): 3.8587 | Log2FC ([8]; degron residues 146/147/149/150/152/153/154/155/167: FGPIGACFL): 3.9002 | Log2FC ([8]; degron residues 146/147/149/150/152/153/154/155/167: FGPVGACFL): 3.8841 | Log2FC ([8]; degron residues 146/147/149/150/152/153/154/155/167: FGPVGAMFL): 3.8585 | Log2FC ([8]; degron residues 146/147/149/150/152/153/154/155/167: FHEIGAPFL (HEIP)): 4.0013 and 4.00 and 4.001 | Log2FC [8, 16]: 3.8152 | Log2FC [8, 17]: 3.9155 and 3.96 and 3.955 | Log2FC ([8]; degron residues 146/147/149/150/152/153/154/155/167: FYEIGAKFL): 3.9035 | Log2FC ([8]; degron residues 146/147/149/150/152/153/154/155/167: FYEIGAPFL): 3.8608 | Log2FC ([8]; degron residues 146/147/149/150/152/153/154/155/167: FYEVGAAFL): 3.8726 | Log2FC ([8]; degron residues 146/147/149/150/152/153/154/155/167: FYNIGAPFL): 3.8168 | Log2FC ([8]; degron residues 146/147/149/150/152/153/154/155/167: FYPIGAPFL): 3.8626 | DC50 ([9]; APIS, Jurkat, 18 h): 74.1 nM | pDC50 ([9]; APIS, Jurkat, 18 h): 7.13 | Selectivity (WT/mutant) ([9]; DC50(WT)/DC50(APIS)): 10.2 and 10

CN1CCN(c2ccc3c(c2)C(=O)N(C2CCC(=O)NC2=O)C3=O)CC1 (stereo not shown) [Compound 23]
degradation of EGFP tagged with WEIS degron (Western blot) [10]: complete degradation | endogenous IKZF3 levels (Western blot) [3]: remained unaffected | degradation of endogenous IKZF3 (Western blot) [3]: do not induce degradation of endogenous IKZF3 | degradation of endogenous IKZF1 [4]: did not induce degradation of endogenous IKZF1 | proteins degraded (quantitative proteomics) (Jurkat cells): no major effect on any of the 9644 quantified proteins | Dmax ([6]; Jurkat, 18 h): 79% | Degradation pDC50 WT [7]: 5.96 | DC50 [7]: 631 nM | pDC50 [7]: 6.20 | Log2FC [8, 11]: -1.4561 and -1.46 | logFC [8, 12]: 2.104 | logFC [8, 13]: 0.9928 | logFC [8, 14]: -0.7621 | logFC [8, 15]: -0.08962 | Log2FC ([8]; degron residues 146/147/149/150/152/153/154/155/167: FWDIGAAFL (WDIA)): 4.2601 and 4.26 | Log2FC ([8]; degron residues 146/147/149/150/152/153/154/155/167: FWDIGANFL): 4.2762 and 4.276 | Log2FC ([8]; degron residues 146/147/149/150/152/153/154/155/167: FWDIGASFL): 4.2199 | Log2FC ([8]; degron residues 146/147/149/150/152/153/154/155/167: FWDVGAAFL): 4.1742 | Log2FC ([8]; degron residues 146/147/149/150/152/153/154/155/167: FWDVGAQFL): 4.2369 | Log2FC ([8]; degron residues 146/147/149/150/152/153/154/155/167: FWDVGASFL): 4.2017 | Log2FC [8, 16]: 4.1830 | Log2FC ([8]; degron residues 146/147/149/150/152/153/154/155/167: FWEIGAHFL): 4.1861 | Log2FC [8, 17]: 4.1692 | Log2FC ([8]; degron residues 146/147/149/150/152/153/154/155/167: FWEIGASFL (WEIS)): 4.4149 and 4.45 and 4.449 | Log2FC ([8]; degron residues 146/147/149/150/152/153/154/155/167: FWEQGASFL): 4.1915 | Log2FC ([8]; degron residues 146/147/149/150/152/153/154/155/167: FWEVGAQFL): 4.1344 | Log2FC ([8]; degron residues 146/147/149/150/152/153/154/155/167: FWEVGASFL): 4.2567 and 4.257 | Log2FC ([8]; degron residues 146/147/149/150/152/153/154/155/167: FWNIGAQFL (WNIQ)): 4.2715 and 4.27 and 4.275 | Log2FC ([8]; degron residues 146/147/149/150/152/153/154/155/167: FWNQGASFL (WNQS)): 3.90 | Log2FC ([8]; degron residues 146/147/149/150/152/153/154/155/167: FWNVGASFL): 4.1357 | Log2FC ([8]; degron residues 146/147/149/150/152/153/154/155/167: FWPVGAQFL): 4.1974 | Log2FC ([8]; degron residues 146/147/149/150/152/153/154/155/167: FYEIGASFL): 4.1371 | Log2FC ([8]; degron residues 146/147/149/150/152/153/154/155/167: FYEVGAEFL): 4.1417 | Log2FC ([8]; degron residues 146/147/149/150/152/153/154/155/167: FYEVGASFL): 4.2356
